Measured values taken from patent US20130237530A1, “BENZODIAZEPINE DERIVATIVES, COMPOSITIONS AND METHODS FOR TREATING COGNITIVE IMPAIRMENT” (priority 2010, published 2013).
“Also recorded” adds a separate entry of the source. Where two headings read alike, the source gives them in different places.

How the values were obtained:
GABAA receptors (α5β3γ2) = molecular target: T1, GABAA receptors (α5β3γ2) (Homo sapiens, UniProt P18507+P28472+P31644); assay: Potentiation of GABA EC50 current, two-electrode voltage clamp (TEVC) in Xenopus oocytes expressing GABAA α5β3γ2; type: cell-based; settings: read-out: GABA α5 EC50 % potentiation
T1 construct: myc-His (from vector pcDNA3.1 myc-His); expressed in transfected cells; host or cells: Xenopus laevis oocytes injected with cDNAs in pcDNA3.1 / pcDNA3.1 myc-His
T1 sequence (P31644 32-462): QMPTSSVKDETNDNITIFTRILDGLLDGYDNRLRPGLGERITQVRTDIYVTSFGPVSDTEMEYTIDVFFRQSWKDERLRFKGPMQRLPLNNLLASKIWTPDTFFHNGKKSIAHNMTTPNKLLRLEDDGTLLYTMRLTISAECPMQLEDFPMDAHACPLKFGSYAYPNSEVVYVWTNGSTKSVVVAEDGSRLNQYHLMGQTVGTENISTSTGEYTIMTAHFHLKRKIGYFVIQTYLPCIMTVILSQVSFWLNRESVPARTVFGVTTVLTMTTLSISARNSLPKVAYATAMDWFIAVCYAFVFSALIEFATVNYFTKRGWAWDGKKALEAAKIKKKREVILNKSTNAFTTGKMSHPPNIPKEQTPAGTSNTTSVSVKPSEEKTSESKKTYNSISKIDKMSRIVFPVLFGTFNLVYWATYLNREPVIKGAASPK
T1 sequence (P28472 26-473): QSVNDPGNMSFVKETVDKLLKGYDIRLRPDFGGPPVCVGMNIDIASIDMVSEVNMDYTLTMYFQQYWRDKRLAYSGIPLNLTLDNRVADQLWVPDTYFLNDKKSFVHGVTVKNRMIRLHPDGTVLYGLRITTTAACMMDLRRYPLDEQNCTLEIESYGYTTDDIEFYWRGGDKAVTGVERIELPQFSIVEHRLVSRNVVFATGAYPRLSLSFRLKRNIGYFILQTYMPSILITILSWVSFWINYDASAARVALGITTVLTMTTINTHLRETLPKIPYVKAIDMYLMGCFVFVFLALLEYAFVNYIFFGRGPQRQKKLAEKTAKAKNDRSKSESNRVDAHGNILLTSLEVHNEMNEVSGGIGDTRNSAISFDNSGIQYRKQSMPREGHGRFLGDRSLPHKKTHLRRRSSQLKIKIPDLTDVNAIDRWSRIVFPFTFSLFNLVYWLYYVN
T1 sequence (P18507 40-475): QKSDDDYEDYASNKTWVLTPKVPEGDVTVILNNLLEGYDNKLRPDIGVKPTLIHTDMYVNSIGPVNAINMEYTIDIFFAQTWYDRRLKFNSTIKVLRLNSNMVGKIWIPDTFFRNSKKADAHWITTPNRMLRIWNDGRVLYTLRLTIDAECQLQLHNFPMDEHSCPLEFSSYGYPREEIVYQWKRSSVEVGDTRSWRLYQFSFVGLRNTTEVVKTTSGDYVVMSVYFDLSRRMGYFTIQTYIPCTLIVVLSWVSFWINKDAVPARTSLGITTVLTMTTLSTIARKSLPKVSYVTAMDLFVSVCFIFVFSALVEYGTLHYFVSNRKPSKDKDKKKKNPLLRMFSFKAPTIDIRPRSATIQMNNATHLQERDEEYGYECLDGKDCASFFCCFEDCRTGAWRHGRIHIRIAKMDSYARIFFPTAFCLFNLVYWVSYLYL
Procedure: The agonist activity of the compounds of this invention was determined by measuring their effect on GABA-gated Cl— current from Xenopus oocytes expressing GABAA α5β3γ2 subtype receptor in a two-electrode voltage clamp (TEVC) setup.
In this study, the GABA-gated Cl^− current from oocytes expressing GABAAR α5β3γ2 subtype was measured in the TEVC setup in the presence of the test compounds. […] Upon conclusion of compound testing and successful washout, a 1.0 μM diazepam was tested and used for comparative activity on the two GABAAR subtypes.
Other concentrations of the test compound may also be tested following the same protocol.
Results are expressed as mean±SEM.

in vivo [1] = type: in vivo, Long Evans rats; settings: male, Long Evans, rat, iv, tracer 1 μg/kg, i.v., after vehicle administration
From the text: (§1) Food and water were available ad libitum.

GABAA α5 receptor [2] = assay: in vivo; type: in vivo, Long Evans rats; settings: i.v.; for effect on Ro 15-4513 binding/levels in cerebellum: 0.01-10 mg/kg
From the text: as §1

aged-impaired (AI) rats [3] = assay: Radial Arm Maze (RAM) behavioral task, spatial memory retention; type: in vivo, rat
Procedure: The effects of methyl 3,5-diphenylpyridazine-4-carboxylate on the in vivo spatial memory retention of aged-impaired (AI) rats were assessed in a Radial Arm Maze (RAM) behavioral task using vehicle control and four different dosage levels of methyl 3,5-diphenylpyridazine-4-carboxylate ([…]). RAM behavioral tasks were performed on eight AI rats. All five treatment conditions (vehicle and four dosage levels) were tested on all eight rats.
The RAM apparatus used consisted of eight equidistantly-spaced arms. An elevated maze arm (7 cm width×75 cm length) projected from each facet of an octagonal center platform (30 cm diameter, 51.5 cm height). Clear side walls on the arms were 10 cm high and were angled at 65° to form a trough. A food well (4 cm diameter, 2 cm deep) was located at the distal end of each arm. Froot Loops™ (Kellogg Company) were used as rewards. Blocks constructed of Plexiglas™ (30 cm height×12 cm width) could be positioned to prevent entry to any arm. Numerous extra maze cues surrounding the apparatus were also provided.
The AI rats were initially subjected to a pre-training test (Chappell et al. Neuropharmacology 37: 481-487, 1998). The pre-training test consisted of a habituation phase (4 days), a training phase on the standard win-shift task (18 days) and another training phase (14 days) in which a brief delay was imposed between presentation of a subset of arms designated by the experimenter (e.g., 5 arms available and 3 arms blocked) and completion of the eight-arm win-shift task (i.e., with all eight arms available).
In the habituation phase, rats were familiarized to the maze for an 8-minute session on four consecutive days. In each of these sessions, food rewards were scattered on the RAM, initially on the center platform and arms and then progressively confined to the arms. After this habituation phase, a standard training protocol was used, in which a food pellet was located at the end of each arm. Rats received one trial each day for 18 days. Each daily trial terminated when all eight food pellets had been obtained or when either 16 choices were made or 15 minutes had elapsed. After completion of this training phase, a second training phase was carried out in which the memory demand was increased by imposing a brief delay during the trial. At the beginning of each trial, three arms of the eight-arm maze were blocked. Rats were allowed to obtain food on the five arms to which access was permitted during this initial “information phase” of the trial. Rats were then removed from the maze for 60 seconds, during which time the barriers on the maze were removed, thus allowing access to all eight arms. Rats were then placed back onto the center platform and allowed to obtain the remaining food rewards during this “retention test” phase of the trial. […]

GABAA α5 receptor [4] = molecular target: T2, GABAA α5 receptor (Rattus norvegicus, UniProt P18508+P19969); assay: in vivo; type: in vivo, Long Evans rats; settings: for effect on Ro 15-4513 binding in hippocampus: 0.01-10 mg/kg; for dose dependence of GABAA α5 receptor occupancy: administered intravenously
T2 construct: from tissue; host or cells: rat brain in vivo; hippocampus compared with cerebellum
T2 sequence (P19969 32-464 limits assumed): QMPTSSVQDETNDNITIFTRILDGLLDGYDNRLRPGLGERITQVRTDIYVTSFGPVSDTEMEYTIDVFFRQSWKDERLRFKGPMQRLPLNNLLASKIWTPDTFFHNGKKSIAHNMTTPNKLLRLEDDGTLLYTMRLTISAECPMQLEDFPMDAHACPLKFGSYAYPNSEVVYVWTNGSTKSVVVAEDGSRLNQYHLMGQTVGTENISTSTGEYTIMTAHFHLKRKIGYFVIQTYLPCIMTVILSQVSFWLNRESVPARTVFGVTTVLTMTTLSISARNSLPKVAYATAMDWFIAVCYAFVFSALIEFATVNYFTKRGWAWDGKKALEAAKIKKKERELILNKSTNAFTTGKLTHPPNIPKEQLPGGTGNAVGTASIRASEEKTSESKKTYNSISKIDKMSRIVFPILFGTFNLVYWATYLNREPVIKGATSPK
T2 sequence (P18508 39-466): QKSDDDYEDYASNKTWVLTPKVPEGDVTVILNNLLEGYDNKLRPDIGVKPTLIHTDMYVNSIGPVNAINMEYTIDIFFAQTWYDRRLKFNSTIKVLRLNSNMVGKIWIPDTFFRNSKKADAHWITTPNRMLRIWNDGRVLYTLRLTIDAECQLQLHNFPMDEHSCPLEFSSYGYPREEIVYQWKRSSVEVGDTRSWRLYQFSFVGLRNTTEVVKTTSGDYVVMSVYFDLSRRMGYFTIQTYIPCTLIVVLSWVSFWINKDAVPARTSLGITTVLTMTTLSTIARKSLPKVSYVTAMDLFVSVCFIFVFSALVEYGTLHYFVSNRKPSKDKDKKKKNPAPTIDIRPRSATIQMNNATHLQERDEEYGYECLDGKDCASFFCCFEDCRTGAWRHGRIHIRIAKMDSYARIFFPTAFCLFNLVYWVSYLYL
From the text: as §1

in vivo [5] = type: in vivo, Long Evans rats; settings: for concentration at 35 min: male, young Long Evans rats
Procedure: as §1
For plasma exposures, blood samples were centrifuged at 14000 rpm for 16 minutes. After centrifuging, 50 ul of supernatant (plasma) from each sample was added to 200 μl of acetonitrile plus 0.1% formic acid. […] Samples were sonicated for 5 minutes in an ultrasonic water bath, followed by centrifugation for 30 minutes, at 16000 RPM. 100 ul of supernatant was removed from each sample vial and placed in a new glass auto sample vial, followed by the addition of 300 μl of sterile water (pH 6.5).
Additional studies were conducted in aged Long-Evans rats in order to determine the exposures at the behaviorally relevant doses in the cognition studies. Exposure in young Long-Evans rats was also determined to bridge with the receptor occupancy studies that were conducted in young Long-Evans rats. Exposures in young and aged Long-Evans rats were relatively similar (Table 3, FIG. 4).

α5-containing GABAA R = α5-containing GABAA R (Homo sapiens, UniProt P18507+P31644); settings: (EC20); van Niel et al. J. Med. Chem. 2005; cited from earlier work
α5-containing GABAA R, sequence (P31644 32-462): as the sequence (P31644 32-462) above
α5-containing GABAA R, sequence (P28472 26-473 partner): as the sequence (P28472 26-473) above
α5-containing GABAA R, sequence (P18507 40-475): as the sequence (P18507 40-475) above

aged-impaired (AI) rats [6] = assay: Morris water maze behavioral task, ICV infusion; type: in vivo, rat; settings: 100 μg ICV
Procedure: The effects of 6,6 dimethyl-3-(3-hydroxypropyl)thio-1-(thiazol-2-yl)-6,7-dihydro-2-benzothiophen-4(5H)-one on the in vivo spatial memory retention of aged-impaired (AI) rats were assessed in a Morris water maze behavioral task. A water maze is a pool surrounded with a novel set of patterns relative to the maze.
Cognitively impaired aged rats were implanted unilaterally with a cannula into the lateral ventricle. Stereotaxic coordinates were 1.0 mm posterior to bregma, 1.5 mm lateral to midline, and 3.5 mm ventral to the skull surface. After about a week of recovery, the rats were pre-trained in a water maze for 2 days (6 trials per day) to locate a submerged escape platform hidden underneath the surface of the pool, in which the escape platform location varied from day to day. No intracerebroventricular (ICV) infusion was given during pre-training
After pre-training, rats received ICV infusion of either 100 μg 6,6 dimethyl-3-(3-hydroxypropyl)thio-1-(thiazol-2-yl)-6,7-dihydro-2-benzothiophen-4(5H)-one (n=6) in 5 μl DMSO or vehicle DMSO (n=5) 40 min prior to water maze training and testing. Training consisted of 8 trials per day for 2 days where the hidden escape platform remained in the same location. Rats were given 60 seconds to locate the platform with a 60 seconds inter-trial interval. The rats were given a probe test (120 seconds) 24 hr after the end of training where the escape platform was removed. During the training, there were 4 blocks, where each block had 4 training trials.
During a test trial 24 hr after training, the escape platform was removed. The search/swim pattern of the rats was used to measure whether the rats remember where the escape platform was located during pre-trial training in order to test for the long-term memory of the rats. In this trial, “target annulus” is a designated area 1.5 times the size of the escape platform around the area where the platform was located during pre-trial training “Opposite annulus” is a control area of the same size as the size of the target annulus, which is located opposite to the target annulus in the pool. If the rats had good long term memory, they would tend to search in the area surrounding the location where the platform was during the pre-trial training (i.e., the “target” annulus; and not the “opposite” annulus). “Time in annulus” is the amount of time in seconds that the rat spent in the target or opposite annulus area. “Number (#) of crossings” in annulus is the number of times the rat swam across the target or opposite annulus area.

[7] = dose increase from 1 to 10 mg/kg, i.v.
[8] = probe test 24 hr after training

CCN(CC)C(=O)c1ncn2c1Cn1nnc(C)c1-c1cc(OC)ccc1-2 [Compound 2]
activation at 10 µM (GABAA receptors (α5β3γ2)): 6.2%

CCOC(=O)c1ncn2c1Cn1nnc(C)c1-c1cc(Cl)ccc1-2 [Compound 9]
activation at 1 µM (GABAA receptors (α5β3γ2)): 8.3%

CCOC(=O)c1ncn2c1CN(C)C(=O)c1cc(N=[N+]=[N-])ccc1-2 [Ro 15-4513]
concentration at 20 min (in vivo [1]; cerebellum, read-out: levels of Ro 15-4513 in cerebellum): 0.36 ± 0.02 ng/g
concentration at 20 min (in vivo [1]; hippocampus, read-out: levels of Ro 15-4513 in hippocampus): 1.93 ± 0.05 ng/g
higher levels in hippocampus compared with cerebellum (GABAA α5 receptor [2]; tracer 1 μg/kg, after vehicle administration): > 5 fold

CCOC(=O)c1ncn2c1Cn1c(C)nnc1-c1cc(OC)ccc1-2 [ethyl 3-methoxy-7-methyl-9H-benzo[f]imidazo[1,5-a][1,2,4]triazolo[4,3-d][1,4]diazepine-10-carboxylate]
memory performance relative to vehicle control (aged-impaired (AI) rats [3]; 3 mg/kg, four-hour delay RAM, t(7)=4.13, p=0.004, or t(7)=3.08, p=0.018): significantly improved memory performance
memory performance relative to vehicle control (aged-impaired (AI) rats [3]; 10 mg/kg, four-hour delay RAM, t(7)=2.82, p=0.026): significantly improved memory performance
effect on Ro 15-4513 binding in hippocampus (GABAA α5 receptor [4]; i.v.): blocked the binding of Ro154513 in the hippocampus; also recorded: reduced Ro 15-4513 binding in hippocampus
GABAA α5 receptor occupancy (GABAA α5 receptor [4]; 10 mg/kg, i.v.): > 90%
dose dependence of GABAA α5 receptor occupancy (GABAA α5 receptor [4]): dose-dependent
effect on Ro 15-4513 binding/levels in cerebellum (GABAA α5 receptor [2]): did not affect binding of Ro15413 in the cerebellum; also recorded: without affecting cerebellum levels of Ro 15-4513

CCc1nnn2c1-c1cc(OC)ccc1-n1cnc(C(=O)N(CC)CC)c1C2 [Compound 7]
activation at 1 µM (GABAA receptors (α5β3γ2)): 11.1%

COC(=O)c1c(-c2ccccc2)cnnc1-c1ccccc1 [methyl 3,5-diphenylpyridazine-4-carboxylate]
average no. of errors ± SEM in retention test (aged-impaired (AI) rats [3]; 3 mg/kg i.p., two-hour delay RAM, AI rats): 1.31±0.40
memory performance relative to vehicle control (aged-impaired (AI) rats [3]; 3 mg/kg i.p., two-hour delay RAM, t(7)=4.233, p=0.004): significantly improved memory performance
effect on Ro 15-4513 binding in hippocampus (GABAA α5 receptor [4]; i.v.): blocked the binding of Ro154513 in the hippocampus; also recorded: dose-dependently reduced Ro 15-4513 binding in hippocampus
dose dependence of GABAA α5 receptor occupancy (GABAA α5 receptor [4]): dose-dependent increase
effect on Ro 15-4513 binding/levels in cerebellum (GABAA α5 receptor [2]): did not affect binding of Ro15413 in the cerebellum; also recorded: without affecting cerebellum levels of Ro 15-4513
Kp (in vivo [5]; Long Evans, rat, in vivo, read-out: brain/plasma ratios): > 1
increase in hippocampal exposure (in vivo [5]; dose increase from 0.1 to 1 mg/kg, i.v.): 12 fold
increase in hippocampal exposure (in vivo [5]; [7]): ~5 fold
increase in plasma exposure (in vivo [5]; [7]): 12 fold
concentration at 35 min (in vivo [5]; Long Evans, rat, in vivo, 0.1 mg/kg, i.v., read-out: Hippocampus exposure (SEM)): 14.6 ng/g
concentration at 35 min (in vivo [5]; Long Evans, rat, in vivo, 1 mg/kg, i.v., read-out: Hippocampus exposure (SEM)): 180 ng/g
concentration at 35 min (in vivo [5]; Long Evans, rat, in vivo, 1 mg/kg, i.v., read-out: Plasma exposure (SEM)): 62.8 ng/mL
concentration at 35 min (in vivo [5]; Long Evans, rat, in vivo, 10 mg/kg, i.v., read-out: Hippocampus exposure (SEM)): 947 ng/g
concentration at 35 min (in vivo [5]; Long Evans, rat, in vivo, 10 mg/kg, i.v., read-out: Plasma exposure (SEM)): 764 ng/mL
α5 in vitro efficacy (α5-containing GABAA R): +27

CC1(C)CC(=O)c2c(SCCCO)sc(-c3nccs3)c2C1 [6,6 dimethyl-3-(3-hydroxypropyl)thio-1-(thiazol-2-yl)-6,7-dihydro-2-benzothiophen-4(5H)-one]
learning of the water maze task (aged-impaired (AI) rats [6]): improved the learning of the water maze task
long-term memory in the water maze task (aged-impaired (AI) rats [6]): improved the long-term memory
time to find the escape platform (escape latency) (aged-impaired (AI) rats [6]; beginning of training (block 1)): about 24 seconds
time to find the escape platform (escape latency) (aged-impaired (AI) rats [6]; end of training (block 4)): about 9.6 seconds
number of crossings of target annulus vs opposite annulus (aged-impaired (AI) rats [6]; [8]): crossed the “target annulus” more often
time in target annulus vs opposite annulus (aged-impaired (AI) rats [6]; [8]): spent significantly more time in the target annulus
